Data as given in patent US20140249143A1, “Compounds And Methods For Enhancing Innate Immune Responses” (GlaxoSmithKline LLC, priority 2011, published 2014).

Experiments:
[1] = tested on: HCV genotype 1a subgenomic replicon; experiment: Anti-Hepatitis C replicon assay, genotype 1a (luciferase); assay type: cell-based; details: Hepatitis C virus; luciferase activity measured 48 hours later; read-out: HCV Genotype 1A Replicon pEC50 (converted)
Method in brief: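 The 1b line is ET cells carrying the I389luc-ubi-neo/NS3-3′/ET replicon with adaptive mutations E1202G, T1280I and K1846T; the 1a line is an Apath replicon line modified with firefly luciferase. Cells were exposed 48 h to compound (final 0.03 pM–50 μM, 0.5-1% DMSO), read by Steady-Glo luciferase, and IC50 came from 10-point four-parameter logistic fits; cytotoxicity was read by CellTiter-Glo.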

[2] = tested on: HCV replication in 1b HCV replicon cells; experiment: siRNA knockdown of JAK/STAT pathway factors in 1b HCV replicon cells; assay type: cell-based, Hepatitis C virus; details: 2 μM, 30 h, 50 nM siRNA
Protocol: 50 nM of siRNA against each gene (Dharmacon, on-target SMART pool: L-020209-00-0005 (IFNAR1), L-015411-00-0005 (IFNAR2), L-007981-00-0005 (IL28RA), L-007926-00-0005 (IL10RB), L-011-57-00-0005(IFNGR1), L-012713-00-0005 (IFNGR2), L-003145-00-0005 (JAK1), L-003146-00-0005 (JAK2), L-003182-00-0005 (Tyk2), L-003147-00-0 005 (JAK3), L-003543-00-0005 (STAT1), L-012064-00-0005 (STAT2)) was transfected in the 1b HCV replicon cells using lipofectamine RNAiMax™ (Invitrogen) according to the manufacturer's protocol. A scrambled irrelevant smart pool control siRNA was included as a control (IRR). After 3 days post transfection, the cells were treated with DMSO, IFNα (5 U/ml), IFNγ (100 U/ml), and Example 1 (2 μM) in triplicate for 30 h. The cells were harvested with Bright-Glo (Promega) and the HCV replication was measured by luminescence. […] To measure the efficiency of the knockdown, total RNA was harvested from the siRNA-transfected cells at day 3 post transfection and analyzed by real time RT-PCR.

[3] = tested on: ISGs and cytokines mRNA; experiment: Induction of ISGs in mice in vivo; parameters: species or system Balb/c mice
Protocol: Naive Balb/c mice were purchased from Charles River Laboratories (Wilmington, Mass.) and administered with murine IFNα2 (30 ug/kg) intravenously or administered with oral Example 1 (300 mg/kg in 30/70% solutol/polyethylene glycol 400). The mice were then euthanized by CO2 inhalation at 0.5, 2, 6, 8, and 24 hours for sample collection. Four mice per dose group were tested.
For RNA isolation, the blood was collected in an RNAprotect™ tube (Qiagen) and processed with RNeasy Protect™ animal blood kit (Qiagen) according to the manufacturer's protocol. To preserve RNA, 30-200 mg of tissue pieces were stored in RNAlater™ solution (Invitrogen) until use. For RNA isolation, the thawed tissues were homogenized using a TissueLyser™ system (Qiagen) and processed with RNeasy 96 Universal Tissue Kit™ (Qiagen) according to the manufacturer's protocol. To remove DNA contamination, on-plate DNase digestion was included during the RNA purification.
For real time RT-PCR, cDNA was made using High Capacity cDNA Reverse Transcription Kit™ (Applied Biosystems). Gene expression was measured using TaqMan Fast Universal PCR Master Mix™ (Applied Biosystems) and gene specific probes and murine primers in HT7900 FAST System™ (Invitrogen). As housekeeping genes, actin and GAPDH were used for normalization. Data was calculated by the ΔΔCt method and fold change determined compared to non-treated control samples.

Compound: FC(F)(F)c1cc(C(F)(F)F)c2ccc3nc(-c4nnco4)cn3c2n1 [Compound 1, 2-[2,4-bis(trifluoromethyl)imidazo[1,2-a]1,8-naphthyridin-8-yl]-1,3,4-oxadiazole]
- EC50 [1]: 50.1 nM
- antiviral activity after knockdown of IFNAR2, JAK1, STAT1, or STAT2 [2]: affected the antiviral activity
- antiviral activity after knockdown of JAK1 [2]: fully abolished
- antiviral activity after knockdown of other Janus kinases (JAKs) [2]: did not show any effect
- up-regulation of ISGs at 24 hours ([3]; Example 1 oral 300 mg/kg, murine IFNα2 30 ug/kg intravenously): appeared to sustain
- mRNA for Mx1, OAS1A, OAS2, CXCL10, ISG15, and IL6 ([3]; oral 300 mg/kg, Balb/c mice): marked increase
